The results in this text go back to patent publication US7989459B2, “Purinones and 1H-imidazopyridinones as PKC-theta inhibitors” (Pharmacopeia, LLC, priority 2006, dated 2011).

Where only a bound is given, the exact number is not on record here.

Holding throughout (type): biochemical
In one experiment the target is PKCθ (Homo sapiens, UniProt Q04759). Put plainly: Ki Pan Vera (PV) PKCθ. On the procedure:
(§1) For Ki Pan Vera (PV) of PKCθ, entries identified with “A” had values below 100 nM; entries identified with “B” had values below 1 μM.

A further experiment addresses PKC alpha (Homo sapiens, UniProt P17252). Briefly: Ki Pan Vera (PV) PKC alpha. On the procedure:
[Worded in the source for another target; this target is reported under the same test.] as §1

The next experiment has as its target T1, SGK1 (Homo sapiens, UniProt O00141).
T1 sequence (O00141 1-431): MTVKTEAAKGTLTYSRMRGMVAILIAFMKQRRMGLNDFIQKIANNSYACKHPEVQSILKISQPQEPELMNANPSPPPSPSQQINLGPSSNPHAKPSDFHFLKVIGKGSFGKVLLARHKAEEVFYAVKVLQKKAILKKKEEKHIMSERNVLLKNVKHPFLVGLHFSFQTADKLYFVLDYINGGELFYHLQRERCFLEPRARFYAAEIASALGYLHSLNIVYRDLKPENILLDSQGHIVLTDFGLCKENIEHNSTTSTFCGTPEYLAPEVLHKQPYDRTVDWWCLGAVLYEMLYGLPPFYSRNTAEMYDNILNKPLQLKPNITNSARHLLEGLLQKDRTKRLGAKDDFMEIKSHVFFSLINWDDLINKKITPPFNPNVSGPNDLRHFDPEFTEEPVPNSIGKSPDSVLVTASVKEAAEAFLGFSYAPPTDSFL
Put plainly: IC50 for kinase SGK (selectivity). The protocol:
Entries identified with “1” had values above 15 nM; entries identified with “2” had values above 100 nM; entries identified with “3” had values above 1 μM; entries identified with “4” had values above 10 μM. In Table 2, “nd” stands for “not determined.”

A further experiment concerns the target PKC delta (Homo sapiens, UniProt Q05655). Briefly: Ki Pan Vera (PV) PKC delta.

For orientation: Ki means a dissociation constant, usually derived from enzyme kinetics or from competition with a known ligand. Higher therefore signals lower affinity. A word on the IC50: it is the concentration that inhibits the measured activity by half.

Chain of PKC delta (Q05655 whole entry): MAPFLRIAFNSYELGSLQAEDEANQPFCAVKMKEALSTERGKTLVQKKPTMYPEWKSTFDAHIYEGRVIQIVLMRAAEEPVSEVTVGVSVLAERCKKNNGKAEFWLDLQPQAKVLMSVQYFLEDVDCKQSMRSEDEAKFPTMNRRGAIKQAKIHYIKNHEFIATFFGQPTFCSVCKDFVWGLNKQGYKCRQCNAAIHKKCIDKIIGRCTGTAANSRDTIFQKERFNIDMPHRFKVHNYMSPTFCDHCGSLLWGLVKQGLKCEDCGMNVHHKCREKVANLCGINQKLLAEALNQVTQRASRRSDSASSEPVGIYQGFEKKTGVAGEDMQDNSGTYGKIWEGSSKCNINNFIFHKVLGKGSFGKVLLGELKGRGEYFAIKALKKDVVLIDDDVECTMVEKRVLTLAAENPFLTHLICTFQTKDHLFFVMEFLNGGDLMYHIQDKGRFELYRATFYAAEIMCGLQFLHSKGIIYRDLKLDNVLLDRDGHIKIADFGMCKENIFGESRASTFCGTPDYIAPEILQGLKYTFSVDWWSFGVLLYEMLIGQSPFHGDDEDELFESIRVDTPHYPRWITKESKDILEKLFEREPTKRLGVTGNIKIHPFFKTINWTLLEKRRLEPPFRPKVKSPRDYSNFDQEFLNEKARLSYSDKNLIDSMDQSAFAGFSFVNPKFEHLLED
Chain of PKCθ (Q04759 whole entry): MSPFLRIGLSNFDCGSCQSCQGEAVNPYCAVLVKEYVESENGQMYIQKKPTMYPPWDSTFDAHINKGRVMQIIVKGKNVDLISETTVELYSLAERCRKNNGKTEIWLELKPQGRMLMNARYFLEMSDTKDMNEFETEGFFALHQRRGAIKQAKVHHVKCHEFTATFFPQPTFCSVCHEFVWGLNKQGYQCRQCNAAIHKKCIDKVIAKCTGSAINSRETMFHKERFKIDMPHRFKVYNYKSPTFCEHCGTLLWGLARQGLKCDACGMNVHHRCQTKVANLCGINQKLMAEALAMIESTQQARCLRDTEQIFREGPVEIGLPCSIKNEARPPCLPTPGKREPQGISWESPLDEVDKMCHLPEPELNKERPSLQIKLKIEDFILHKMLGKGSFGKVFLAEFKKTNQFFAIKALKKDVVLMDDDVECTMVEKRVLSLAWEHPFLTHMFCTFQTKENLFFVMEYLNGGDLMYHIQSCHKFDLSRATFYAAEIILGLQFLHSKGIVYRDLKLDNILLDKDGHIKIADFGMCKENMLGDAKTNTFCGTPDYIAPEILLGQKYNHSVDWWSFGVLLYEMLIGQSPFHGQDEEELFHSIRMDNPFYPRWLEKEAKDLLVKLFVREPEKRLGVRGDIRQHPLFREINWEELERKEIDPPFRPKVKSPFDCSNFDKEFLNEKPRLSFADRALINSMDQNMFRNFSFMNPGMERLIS

On to `O=c1[nH]c2cnc(NCC3CCNC3)nc2n1Cc1ccccc1Br` (stereo not drawn) [Compound 104], for which the values for the Ki at PKCθ, on PKC alpha and at PKC delta were under 100 nM, over 1000 nM and over 15 nM, respectively. The IC50 on SGK1 is over 10000 nM.
`O=c1[nH]c2cnc(NCC3CCNC3)nc2n1Cc1ccccc1F` (stereo not drawn) [Compound 204]: the Ki on PKCθ was under 1000 nM; at PKC alpha it was over 10000 nM; at PKC delta it was over 100 nM. Moreover, at SGK1, the half-maximal inhibitory concentration (IC50) was over 10000 nM.
With `O=c1[nH]c2cnc(NC[C@H]3CCNC3)nc2n1Cc1ccccc1C(F)(F)F` [Compound 122], the Ki on PKCθ was under 100 nM; on PKC alpha it was over 1000 nM; on PKC delta, over 100 nM. Moreover, the “IC50-SGK1 (nM)” value against SGK1 is “Inactive”.
Consider `O=c1[nH]c2cnc(NCC3CCNCC3)nc2n1Cc1ccccc1Cl` [Compound 206], for which the results for the Ki at PKCθ, on PKC alpha and at PKC delta were under 1000 nM, over 10000 nM and over 100 nM, respectively. In addition, the “IC50-SGK1 (nM)” value against SGK1 is on record as “Inactive”.
In the case of `O=c1[nH]c2cnc(NCC3CCNC3)nc2n1Cc1cccc(Cl)c1Cl` (stereo not drawn) [Compound 114], the inhibition constant (Ki) at PKCθ was under 100 nM; at PKC alpha, over 10000 nM; on PKC delta, over 100 nM. This compound came in with a concentration for half-maximal inhibition (IC50) at SGK1 of over 10000 nM.
With `NCCCNc1ncc2[nH]c(=O)n(Cc3ccccc3Br)c2n1` [Compound 127], the Ki is under 100 nM on PKCθ, over 10000 nM on PKC alpha and over 100 nM at PKC delta. The same compound displayed a half-inhibitory concentration (IC50) on SGK1 of over 1000 nM.
For `NCCCNc1ncc2[nH]c(=O)n(Cc3c(F)cccc3Cl)c2n1` [Compound 118], the Ki was under 100 nM on PKCθ, over 10000 nM on PKC alpha and over 100 nM on PKC delta. Moreover, the “IC50-SGK1 (nM)” value on SGK1 is reported as “Inactive”.
Take `O=c1[nH]c2cnc(NCC3CCNC3)nc2n1Cc1cc(F)ccc1C(F)(F)F` (stereo not drawn) [Compound 105]: the values for the Ki at PKCθ, at PKC alpha and at PKC delta were under 100 nM, over 1000 nM and over 15 nM, respectively. Moreover, on SGK1, the IC50 was over 1000 nM.
Turning to `O=c1[nH]c2ccc(NC[C@H]3CCNC3)nc2n1Cc1c(Cl)cccc1Cl` [Compound 148], the Ki at PKCθ was under 100 nM; on PKC alpha, over 10000 nM; on PKC delta, over 100 nM.
In the case of `NCCCNc1ncc2[nH]c(=O)n(Cc3ccccc3Cl)c2n1` [Compound 124], the Ki at PKCθ was under 100 nM; at PKC alpha it was over 10000 nM; on PKC delta, over 100 nM. On SGK1, this compound displayed an IC50 of over 10000 nM.
Regarding `O=c1[nH]c2cnc(NC[C@H]3CCCNC3)nc2n1Cc1ccccc1Br` [Compound 141], the Ki at PKCθ is under 1000 nM; at PKC alpha it was over 10000 nM; at PKC delta, over 100 nM. In addition, the “IC50-SGK1 (nM)” value against SGK1 was “Inactive”.
With `NCCCNc1ncc2[nH]c(=O)n(Cc3ccccc3OC(F)(F)F)c2n1` [Compound 139], the values for the inhibitory constant (Ki) at PKCθ, on PKC alpha and on PKC delta were under 1000 nM, over 10000 nM and over 1000 nM, respectively. Besides, the “IC50-SGK1 (nM)” value against SGK1 is given as “Inactive”.
`O=c1[nH]c2cnc(NC[C@@H]3CCCNC3)nc2n1Cc1ccccc1C(F)(F)F` [Compound 144]: the results for the Ki at PKCθ, on PKC alpha and at PKC delta were under 1000 nM, over 10000 nM and over 100 nM, respectively. Moreover, the IC50 on SGK1 was over 10000 nM.
`NCCCNc1ncc2[nH]c(=O)n(Cc3cccc(Cl)c3Cl)c2n1` [Compound 117]: the Ki on PKCθ was under 100 nM; at PKC alpha it was over 10000 nM; at PKC delta, over 100 nM. Besides, at SGK1, the “IC50-SGK1 (nM)” value is reported as “Inactive”.
For the compound `O=c1[nH]c2cnc(NC[C@H]3CCCNC3)nc2n1Cc1ccccc1C(F)(F)F` [Compound 142], the Ki on PKCθ is under 1000 nM; on PKC alpha, over 10000 nM; on PKC delta it was over 100 nM. Also, on SGK1, the IC50 is over 10000 nM.
`COc1ccccc1Cn1c(=O)[nH]c2cnc(NCCCN)nc21` [Compound 218]: the Ki was under 1000 nM on PKCθ, over 10000 nM at PKC alpha and over 1000 nM on PKC delta.
On to `Cc1ccccc1Cn1c(=O)[nH]c2cnc(NCCCN)nc21` [Compound 216], for which the Ki is under 1000 nM on PKCθ, over 10000 nM on PKC alpha and over 1000 nM at PKC delta.
Consider `O=c1[nH]c2cnc(NCC3CCNC3)nc2n1Cc1c(F)cccc1F` (stereo not drawn) [Compound 119], for which the Ki at PKCθ is under 100 nM; on PKC alpha, over 10000 nM; at PKC delta, over 100 nM. Moreover, the “IC50-SGK1 (nM)” value on SGK1 is “Inactive”.
As to `O=c1[nH]c2cnc(NCC3CCCNC3)nc2n1Cc1ccccc1Cl` (stereo not drawn) [Compound 203], the Ki at PKCθ was under 1000 nM; at PKC alpha, over 10000 nM; at PKC delta it was over 100 nM. Also, the “IC50-SGK1 (nM)” value against SGK1 is listed as “Inactive”.
Consider `O=c1[nH]c2cnc(NC[C@@H]3CCNC3)nc2n1Cc1ccccc1Cl` [Compound 128], for which the Ki is under 1000 nM on PKCθ, over 10000 nM on PKC alpha and over 100 nM on PKC delta. For the same compound, the IC50 against SGK1 is over 10000 nM.
For the compound `O=c1[nH]c2cnc(NC[C@@H]3CCCNC3)nc2n1Cc1c(Cl)cccc1Cl` [Compound 138], the Ki was under 100 nM at PKCθ, over 10000 nM on PKC alpha and over 100 nM at PKC delta. Further, on SGK1, the IC50 is over 10000 nM.
For the compound `O=c1[nH]c2cnc(NCC3CCNCC3)nc2n1Cc1c(Cl)cccc1Cl` [Compound 205], the Ki on PKCθ is under 1000 nM; on PKC alpha, over 10000 nM; at PKC delta, over 100 nM. Further, at SGK1, the “IC50-SGK1 (nM)” value was “Inactive”.
Regarding `NCCCNc1ncc2[nH]c(=O)n(Cc3c(F)cccc3F)c2n1` [Compound 129], the Ki at PKCθ is under 100 nM; at PKC alpha it was over 10000 nM; on PKC delta it was over 100 nM. Further, the “IC50-SGK1 (nM)” value at SGK1 was “Inactive”.
Turning to `NCCCNc1ccc2[nH]c(=O)n(Cc3c(Cl)cccc3Cl)c2n1` [Compound 149], the figures for the Ki at PKCθ, at PKC alpha and on PKC delta were under 100 nM, over 10000 nM and over 100 nM, respectively. At SGK1, the “IC50-SGK1 (nM)” value is listed as “Inactive”.
As for `NCCCNc1ccc2[nH]c(=O)n(Cc3ccccc3Cl)c2n1` [Compound 241], the results for the Ki on PKCθ, at PKC alpha and at PKC delta were under 1000 nM, over 10000 nM and over 100 nM, respectively. Also, the “IC50-SGK1 (nM)” value at SGK1 is “Inactive”.
Turning to `O=c1[nH]c2cnc(NC[C@@H]3CCNC3)nc2n1Cc1ccccc1C(F)(F)F` [Compound 116], the Ki was under 100 nM at PKCθ, over 1000 nM on PKC alpha and over 100 nM at PKC delta. At SGK1, this compound came in with an IC50 of over 10000 nM.
For `NCCCNc1ncc2[nH]c(=O)n(Cc3cccc(Cl)c3)c2n1` [Compound 214], the Ki was under 1000 nM on PKCθ, over 10000 nM at PKC alpha and over 1000 nM at PKC delta.
With `O=c1[nH]c2cnc(NC[C@H]3CCNC3)nc2n1Cc1ccccc1Cl` [Compound 103], the Ki on PKCθ is under 100 nM; on PKC alpha it was over 1000 nM; at PKC delta, over 15 nM. In addition, on SGK1, the IC50 is over 1000 nM.
As for `O=c1[nH]c2cnc(NC[C@H]3CCCNC3)nc2n1Cc1c(Cl)cccc1Cl` [Compound 140], the Ki on PKCθ was under 1000 nM; on PKC alpha it was over 10000 nM; on PKC delta, over 100 nM. Besides, at SGK1, the IC50 is over 10000 nM.
With `O=c1[nH]c2cnc(NCCCn3ccnc3)nc2n1Cc1c(Cl)cccc1C(F)(F)F` [Compound 207], the inhibition constant Ki on PKCθ is under 1000 nM; on PKC alpha, over 10000 nM; on PKC delta, over 100 nM.
In the same order, the values of `O=c1[nH]c2cnc(NCC3CCNCC3)nc2n1-c1cccc(Cl)c1` [Compound 224] are under 1000 nM, over 1000 nM and over 1000 nM.
Consider `O=c1[nH]c2cnc(NCC3CCNC3)nc2n1Cc1ccccc1OC(F)(F)F` (stereo not drawn) [Compound 112], for which the Ki at PKCθ was under 100 nM; on PKC alpha, over 1000 nM; on PKC delta, over 100 nM. Further, the “IC50-SGK1 (nM)” value at SGK1 is on record as “Inactive”.
For `NCCCNc1ncc2[nH]c(=O)n(Cc3ccccc3F)c2n1` [Compound 208], the Ki on PKCθ was under 1000 nM; at PKC alpha, over 10000 nM; at PKC delta, over 100 nM. Also, the “IC50-SGK1 (nM)” value against SGK1 is “Inactive”.
In the same order, the values of `NCCCNc1ncc2[nH]c(=O)n(Cc3ccccc3C(F)(F)F)c2n1` [Compound 136] are under 100 nM, over 10000 nM, over 100 nM and “Inactive”.
Consider `O=c1[nH]c2cnc(NCC3CCNCC3)nc2n1Cc1ccccc1Br` [Compound 201], for which the Ki was under 1000 nM on PKCθ, over 1000 nM on PKC alpha and over 100 nM on PKC delta. This compound also had an IC50 against SGK1 of over 10000 nM.
For the compound `O=c1[nH]c2cnc(NCC3CCNCC3)nc2n1Cc1ccccc1C(F)(F)F` [Compound 145], the Ki at PKCθ was under 1000 nM; at PKC alpha, over 10000 nM; at PKC delta it was over 1000 nM. For the same compound, the “IC50-SGK1 (nM)” value against SGK1 is given as “Inactive”.
In the case of `O=c1[nH]c2cnc(NCC3CCNC3)nc2n1[C@@H]1CCc2ccccc21` (stereo partly drawn) [Compound 231], the values for the Ki at PKCθ, on PKC alpha and on PKC delta were under 1000 nM, over 10000 nM and over 1000 nM, respectively.
Take `O=c1[nH]c2cnc(NCC3CCNC3)nc2n1Cc1ccccc1C(F)(F)F` (stereo not drawn) [Compound 109]: the values for the Ki on PKCθ, on PKC alpha and on PKC delta were under 100 nM, over 1000 nM and over 15 nM, respectively.
For the compound `O=c1[nH]c2cnc(NCC3CCNCC3)nc2n1Cc1cccc(Cl)c1` [Compound 215], the Ki is under 1000 nM at PKCθ, over 10000 nM at PKC alpha and over 1000 nM on PKC delta.
